Data set [1] is described as follows: Mutagenecity in Salmonella typhimurium TA1535 in presence of S9 fraction at 5 to 100 uM by Ames test. To be noted: salmonella enterica subsp. enterica serovar typhimurium, s9, 100 µM; dose 5-100 µM. Type of data set: toxicity, subcellular.
Data set [2] is described as follows: AUC in CD-1 mouse plasma at 2 mg/kg, iv measured up to 8 hrs. Type of data set: ADME, organism-based. On the set-up: route intravenous, dose 2 mg/kg, time <=8.
Data set [3] is described as follows: Drug concentration in plasma of CD-1 mouse at 8 mg/kg, po administered as single cassette dose measured after 60 mins. The format is ADME, organism-based.
Data set [4] can be described thus: Mutagenecity in Salmonella typhimurium TA98 in absence of S9 fraction at 5 to 100 uM by Ames test. Type of data set: toxicity. Conditions: salmonella enterica subsp. enterica serovar typhimurium, s9, 100 µM; dose 5-100 µM.
Data set [5] is described as follows: Mutagenecity in Salmonella typhimurium TA100 in presence of S9 fraction at 5 to 100 uM by Ames test. Type of data set: toxicity, subcellular. To be noted: salmonella enterica subsp. enterica serovar typhimurium, s9, 100 µM; dose 5-100 µM. Background: In the Ames test, an excess of revertant colonies over the control signals mutagenicity.
Data set [6] in a line: Half life in mouse liver microsomes at 1 uM in presence of NADPH by LC-MS/MS analysis. The format is ADME, Microsome. On the technique in general: Liver microsomes are a subcellular fraction often used to study metabolism.
Data set [7] concerns the target T1, N-acylethanolamine-hydrolyzing acid amidase (Homo sapiens, UniProt Q02083).
T1 sequence (Q02083 whole entry): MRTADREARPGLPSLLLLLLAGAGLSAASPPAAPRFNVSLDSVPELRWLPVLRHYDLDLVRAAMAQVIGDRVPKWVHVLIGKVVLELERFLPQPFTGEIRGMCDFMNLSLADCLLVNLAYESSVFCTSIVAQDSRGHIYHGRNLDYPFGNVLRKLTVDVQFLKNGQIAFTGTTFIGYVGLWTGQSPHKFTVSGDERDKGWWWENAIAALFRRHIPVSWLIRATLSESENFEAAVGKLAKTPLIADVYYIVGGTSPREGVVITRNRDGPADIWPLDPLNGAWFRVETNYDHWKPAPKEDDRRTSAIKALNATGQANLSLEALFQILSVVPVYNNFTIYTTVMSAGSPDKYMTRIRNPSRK
The experiment in a line: Inhibition of human NAAA using N-(4-methyl coumarin)-palmitamide as fluorogenic substrate preincubated for 90 mins followed by substrate addition by fluorescence assay.

Data set [8] can be described thus: Drug concentration in plasma of CD-1 mouse at 2 mg/kg, iv administered as single cassette dose measured after 15 mins. The format is ADME, organism-based.
Data set [9] addresses Cannabinoid receptor 2 (Homo sapiens) (UniProt P34972). The experiment in a line: Displacement of [3H]-CP55940 from human CB2 receptor expressed in HEK293 cell membrane at 10 uM. The format is cell membranes. A general note: Displacement assays read how much labelled ligand stays bound in the presence of the test substance.
The nature of data set [10]: Half life in CD-1 mouse plasma at 8 mg/kg, po measured up to 8 hrs. Type of data set: ADME, organism-based.
Data set [11] deals with Voltage-gated inwardly rectifying potassium channel KCNH2 (Homo sapiens, UniProt Q12809). The experiment in a line: Inhibition of human ERG.
A short description of data set [12]: Clearance in CD-1 mouse plasma at 8 mg/kg, po measured up to 8 hrs. The format is ADME, organism-based.
Data set [13] is described as follows: AUC in CD-1 mouse plasma at 8 mg/kg, po measured up to 8 hrs. Type of data set: ADME, organism-based. Also noted: route oral, dose 8 mg/kg, time <=8.
Data set [14] is described as follows: Mutagenecity in Salmonella typhimurium TA100 in absence of S9 fraction at 5 to 100 uM by Ames test. The format is toxicity. Conditions: salmonella enterica subsp. enterica serovar typhimurium, s9, 100 µM; dose 5-100 µM.
Data set [15] can be described thus: Ratio of drug concentration in brain to plasma in CD-1 mouse at 2 mg/kg, iv. The format is ADME, organism-based. To be noted: read-out: BPR.
Data set [16] is described as follows: Half life in rat liver microsomes at 1 uM in presence of NADPH by LC-MS/MS analysis. Type of data set: ADME, Microsome.
The nature of data set [17]: Clearance in CD-1 mouse plasma at 2 mg/kg, iv measured up to 8 hrs. Type of data set: ADME, organism-based.
Data set [18] can be described thus: Drug concentration in plasma of CD-1 mouse at 8 mg/kg, po administered as single cassette dose measured after 30 mins. The format is ADME, organism-based.

Activity calls are given as the source filed them. The calls are words filed in the database; no cut-off is given here.

Sequence of Cannabinoid receptor 2 (Homo sapiens) (P34972 whole entry): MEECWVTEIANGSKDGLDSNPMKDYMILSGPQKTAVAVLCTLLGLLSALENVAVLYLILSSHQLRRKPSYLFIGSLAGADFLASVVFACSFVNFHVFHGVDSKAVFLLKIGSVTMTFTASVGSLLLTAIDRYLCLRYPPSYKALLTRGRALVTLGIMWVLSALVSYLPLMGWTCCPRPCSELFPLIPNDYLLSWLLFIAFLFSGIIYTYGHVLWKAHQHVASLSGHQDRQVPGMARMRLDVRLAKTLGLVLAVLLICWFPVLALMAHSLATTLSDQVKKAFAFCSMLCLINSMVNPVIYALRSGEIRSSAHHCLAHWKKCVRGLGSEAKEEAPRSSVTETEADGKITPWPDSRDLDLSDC
Sequence of Voltage-gated inwardly rectifying potassium channel KCNH2 (Q12809 whole entry): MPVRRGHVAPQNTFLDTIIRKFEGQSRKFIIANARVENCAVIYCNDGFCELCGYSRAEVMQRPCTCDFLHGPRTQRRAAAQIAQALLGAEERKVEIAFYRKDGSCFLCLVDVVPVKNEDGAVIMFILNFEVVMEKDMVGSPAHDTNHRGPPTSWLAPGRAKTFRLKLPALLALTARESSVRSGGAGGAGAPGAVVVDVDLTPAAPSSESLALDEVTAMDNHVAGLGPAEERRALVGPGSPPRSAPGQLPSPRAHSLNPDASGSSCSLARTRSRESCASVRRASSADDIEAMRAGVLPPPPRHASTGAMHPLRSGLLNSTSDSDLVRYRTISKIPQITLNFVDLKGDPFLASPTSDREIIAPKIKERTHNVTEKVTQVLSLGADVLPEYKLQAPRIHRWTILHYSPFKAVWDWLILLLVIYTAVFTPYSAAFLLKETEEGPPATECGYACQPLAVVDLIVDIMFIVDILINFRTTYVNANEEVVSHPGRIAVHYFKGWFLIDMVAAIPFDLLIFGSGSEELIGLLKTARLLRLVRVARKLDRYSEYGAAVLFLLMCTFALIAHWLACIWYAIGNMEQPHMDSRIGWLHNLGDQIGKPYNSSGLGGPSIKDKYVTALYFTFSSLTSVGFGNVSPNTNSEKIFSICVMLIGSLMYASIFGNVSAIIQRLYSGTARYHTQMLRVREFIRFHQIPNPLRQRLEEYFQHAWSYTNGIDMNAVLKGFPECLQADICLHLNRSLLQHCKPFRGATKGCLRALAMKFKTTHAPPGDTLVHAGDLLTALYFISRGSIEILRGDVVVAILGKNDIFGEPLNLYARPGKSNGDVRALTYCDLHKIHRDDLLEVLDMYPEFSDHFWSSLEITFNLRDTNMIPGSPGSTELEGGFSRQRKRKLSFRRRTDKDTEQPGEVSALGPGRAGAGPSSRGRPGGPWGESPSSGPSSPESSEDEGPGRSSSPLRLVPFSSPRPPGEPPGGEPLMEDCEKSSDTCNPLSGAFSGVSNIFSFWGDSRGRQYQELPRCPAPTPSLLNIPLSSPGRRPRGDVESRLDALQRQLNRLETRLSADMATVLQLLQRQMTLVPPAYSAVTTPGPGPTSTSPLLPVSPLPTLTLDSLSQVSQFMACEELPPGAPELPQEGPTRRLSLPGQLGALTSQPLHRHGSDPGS

Consider `COc1ccc(-c2ccc(CO[C@H]3C[C@@H](N=C=S)C3)nc2)cc1F`, for which the Activity result in data set [1], in [4], in data set [5] and in data set [14] was “Non-Toxic” throughout. For the same compound, the AUC (usually the area under the concentration-time curve, a measure of exposure) at 8 h in data set [2] is 78.5 ng·h/mL; in data set [13], 41.3 ng·h/mL. This compound returned a concentration at 1 h in [3] of 54 ng/mL. In addition, the half-life (usually the time in which the quantity being followed falls by half) at 1 µM in data set [6] is 28.2 min; in data set [16] it was 19.2 min. Also, the IC50 (as a rule, the concentration needed to halve the response being measured) in data set [7] came to 0.02 µM; in data set [11], 19 µM. Moreover, the concentration at 0.25 h in [8] was 189 ng/mL. The inhibition result in [9] is “inactive”. Besides, the half-life in data set [10] was 31.5 min. The CL/F – broadly, the apparent clearance, not corrected for the fraction that reaches the circulation – in data set [12] worked out at 2760 mL/min/kg. In [15], the Kp was 3.8. In addition, the clearance (in general, the volume of plasma or blood freed of the substance per unit of time) in [17] was 412 mL/min/kg. The compound further had a concentration at 0.5 h in data set [18] of 16 ng/mL.

The record behind these values is ChEMBL document CHEMBL4834430, “Design and Structure-Activity Relationships of Isothiocyanates as Potent and Selective N-Acylethanolamine-Hydrolyzing Acid Amidase Inhibitors” (J Med Chem, 2021).
